# Experimental data: paper PMC4990313, “Biocatalytic Asymmetric Alkene Reduction: Crystal Structure and Characterization of a Double Bond Reductase from Nicotiana tabacum” (ACS Catalysis, 2013)
# Columns and labels:
# [1] = molecular target: T1, NtDBR (double bond reductase) (Nicotiana tabacum, UniProt Q9SLN8); assay: X-ray crystal structure (ternary complex, soak); type: binding
# T1 construct: gene DBR; full-length, C-terminal His6-tag
# [2] = molecular target: T1, NtDBR (double bond reductase); assay: steady-state kinetics, NADPH oxidation; kcat/Km at pH […]; type: biochemical
# [3] = molecular target: T1, NtDBR (double bond reductase); assay: steady-state kinetics, NADPH oxidation; substrate inhibition at pH […]; type: biochemical
# [4] = molecular target: T1, NtDBR (double bond reductase); assay: X-ray crystal structure (ternary complex, soak); some reduction in biotransformation; type: binding
# [5] = molecular target: T1, NtDBR (double bond reductase); assay: steady-state kinetics, NADPH oxidation; rate at pH […]; type: biochemical
# [6] = molecular target: T1, NtDBR (double bond reductase); assay: steady-state kinetics, NADPH oxidation; biotransformation with GC; type: biochemical
# [7] = molecular target: T1, NtDBR (double bond reductase); assay: X-ray crystal structure (binary complex, NADPH soak); steady-state kinetics; type: binding
# T1 sequence (Q9SLN8 whole entry): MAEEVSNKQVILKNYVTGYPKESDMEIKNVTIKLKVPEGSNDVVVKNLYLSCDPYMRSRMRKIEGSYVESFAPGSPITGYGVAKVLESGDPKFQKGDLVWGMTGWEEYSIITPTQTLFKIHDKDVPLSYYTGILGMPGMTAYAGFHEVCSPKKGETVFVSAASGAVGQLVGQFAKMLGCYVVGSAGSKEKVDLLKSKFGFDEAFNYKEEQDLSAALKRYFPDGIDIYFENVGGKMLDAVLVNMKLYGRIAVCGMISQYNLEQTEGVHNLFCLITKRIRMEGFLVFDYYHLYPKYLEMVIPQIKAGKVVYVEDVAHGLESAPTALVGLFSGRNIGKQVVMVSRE
smiles,measurement,setting,value
NC(=O)c1ccc[n+]([C@@H]2O[C@H](COP(=O)(O)OP(=O)(O)OC[C@H]3O[C@@H](n4cnc5c(N)ncnc54)[C@H](OP(=O)(O)O)[C@@H]3O)[C@@H](O)[C@H]2O)c1 [NADP^+],"X-ray crystal structure (ternary complex, soak)",[1],showed clear |Fo| – |Fc| electron density for the presence of NADP^+ and a second ligand in subunit A only
"O=C/C=C/c1ccccc1 [6a, trans-cinnamaldehyde]","steady-state kinetics, NADPH oxidation; kcat/Km at pH 5.4",[2],2.8
"CCC=C(C)C=O [2a, 2-methylpentenal]",Ki,[3],2.6 ± 0.6 mM
"COc1cc(C=CC=O)ccc1O [9a, 4-hydroxy-3-methoxycinnamaldehyde]","X-ray crystal structure (ternary complex, soak); some reduction in biotransforma",[4],have modeled in HMCA because this was the compound soaked into the crystals
"C=CC(=O)CCCCC [5a, 1-octen-3-one]","steady-state kinetics, NADPH oxidation; rate at pH 7.3",[5],0.52 ± 0.03 s^–1
"O=[N+]([O-])C1=CCCCC1 [1a, 1-nitrocyclohexene]","steady-state kinetics, NADPH oxidation; biotransformation with GC",[6],NtDBR shows a high preference for 1-nitrocyclohexene (1a) over typical LTD alkenal/one substrates
"CCCCCC/C=C/C=O [4a, trans-2-nonenal]","steady-state kinetics, NADPH oxidation; rate at pH 7.3",[5],0.87 ± 0.07 s^–1
NC(=O)C1=CN([C@@H]2O[C@H](COP(=O)(O)OP(=O)(O)OC[C@H]3O[C@@H](n4cnc5c(N)ncnc54)[C@H](OP(=O)(O)O)[C@@H]3O)[C@@H](O)[C@H]2O)C=CC1 [NADPH],"X-ray crystal structure (binary complex, NADPH soak); steady-state kinetics",[7],Both the binary and ternary crystal structures showed clear |Fo| – |Fc| electron density for the NADP(H)
